# According to ChEMBL document CHEMBL1132968, “Substituent effects on the antibacterial activity of nitrogen-carbon-linked (azolylphenyl)oxazolidinones with expanded activity against the fastidious gram-negative organisms Haemophilus influenzae and Moraxella catarrhalis” (2000):
# Key:
# Type in all cases: functional
# Enterococcus faecalis = assay: Inhibitory activity against Enterococcus faecalis UC9217
# Haemophilus influenzae = assay: Inhibitory activity against Haemophilus influenzae UC30063
# Moraxella catarrhalis = assay: Inhibitory activity against Moraxella catarrhalis UC30610
# Streptococcus pneumoniae = assay: Inhibitory activity against Streptococcus pneumoniae UC9912
# [1] = tested on: Staphylococcus epidermidis; assay: Inhibitory activity against Methicillin-resistant Staphylococcus epidermidis UC12084
# Staphylococcus aureus [2] = assay: Inhibitory activity against Methicillin-resistant Staphylococcus aureus UC6685
# Staphylococcus aureus [3] = assay: Inhibitory activity against Methicillin-susceptible Staphylococcus aureus UC9213
# Mus musculus [4] = assay: Dose required to cure 50% of Staphylococcus aureus infected mice when orally administered;value ranges from 3.1-7.8; conditions: po
# Mus musculus [5] = assay: Dose required to cure 50% of Staphylococcus aureus infected mice in the presence of vancomycin when administered orally.; conditions: po
# Mus musculus [6] = assay: Dose required to cure 50% of Staphylococcus aureus infected mice when administered orally;; conditions: po
# Mus musculus [7] = assay: Dose required to cure 50% of Staphylococcus aureus infected mice in the presence of eperezolid when administered orally; vlue ranges from 1.1-2.8; conditions: po
# Mus musculus [8] = assay: Dose required to cure 50% of Staphylococcus aureus infected mice when administered orally; the value ranges from 1.1-3.3; conditions: po
# Mus musculus [9] = assay: Dose required to cure 50% of Staphylococcus aureus infected mice in the presence of eperezolid when orally administered; the value ranges from 1.7-4.5; conditions: po
smiles,measurement,setting,value
CC(=O)NC[C@H]1CN(c2ccc(-n3ccnn3)c(F)c2)C(=O)O1,MIC,Enterococcus faecalis,1 µg/mL
same,MIC,Haemophilus influenzae,4 µg/mL
same,MIC,Moraxella catarrhalis,2 µg/mL
same,MIC,Streptococcus pneumoniae,≤ 0.5 µg/mL
same,MIC,[1],≤ 0.5 µg/mL
same,MIC,Staphylococcus aureus [2],1 µg/mL
same,MIC,Staphylococcus aureus [3],1 µg/mL
same,ED50,Mus musculus [4],4.7 mg/kg/day
same,ED50,Mus musculus [5],2 mg/kg/day
CC(=O)NC[C@H]1CN(c2ccc(-n3cnnc3)c(F)c2)C(=O)O1,MIC,Enterococcus faecalis,8 µg/mL
same,MIC,Haemophilus influenzae,> 16 µg/mL
same,MIC,Moraxella catarrhalis,8 µg/mL
same,MIC,Streptococcus pneumoniae,1 µg/mL
same,MIC,[1],4 µg/mL
same,MIC,Staphylococcus aureus [2],8 µg/mL
same,MIC,Staphylococcus aureus [3],16 µg/mL
same,ED50,Mus musculus [6],> 20 mg/kg/day
same,ED50,Mus musculus [7],2 mg/kg/day
CC(=O)NC[C@H]1CN(c2ccc(-n3cc(C#N)nn3)c(F)c2)C(=O)O1,MIC,Enterococcus faecalis,1 µg/mL
same,MIC,Haemophilus influenzae,2 µg/mL
same,MIC,Moraxella catarrhalis,2 µg/mL
same,MIC,Streptococcus pneumoniae,≤ 0.125 µg/mL
same,MIC,[1],0.25 µg/mL
same,MIC,Staphylococcus aureus [2],0.5 µg/mL
same,MIC,Staphylococcus aureus [3],1 µg/mL
same,ED50,Mus musculus [8],1.9 mg/kg/day
same,ED50,Mus musculus [9],2.8 mg/kg/day
